The values below come from ChEMBL document CHEMBL1132744, “Synthesis and antiproliferative activity of some benzimidazole-4,7-dione derivatives” (Bioorg Med Chem Lett, 2000).

The nature of series [1]: Antiproliferative activity of compound was evaluated on SupT1 cells from human non-Hodgkin lymphoma. In kind it is functional. The note with it: SUP-T1, read-out: ID50 (the source's name).
Series [2] can be described thus: Antiproliferative activity of compound was evaluated on Molt3 cells from human lymphoblastic leukemia. The following applies: MOLT-3, read-out: ID50 (the source's name). In kind it is functional.
For another series, the system named is MCF7. Kind of series: Antiproliferative activity of compound was evaluated on MCF-7 cells from human breast adenocarcinoma. The following applies: read-out: ID50 (the source's name). Type of series: functional.
The subject of series [3] is Vero. Kind of series: The compound was evaluated for cytotoxicity against VERO cells using Lowry's test at a concentration 11.2 uM. In kind it is cell-based. The following applies: chlorocebus sabaeus.
The subject of series [4] is Vero. In words: The compound was evaluated for cytotoxicity against VERO cells using Lowry's test at a concentration 90 uM. Type of series: cell-based. The note with it: chlorocebus sabaeus.
Series [5] is described as follows: The compound was evaluated for cytotoxicity against VERO cells using Dye test at a concentration 0.7 uM. In kind it is cell-based. The note with it: chlorocebus sabaeus, read-out: Cellular growth.
Series [6] has as its system Vero. In words: The compound was evaluated for cytotoxicity against VERO cells using Lowry's test at a concentration 0.7 uM. In kind it is cell-based. The note with it: chlorocebus sabaeus.
The nature of series [7]: The compound was evaluated for cytotoxicity against VERO cells using Dye test at a concentration 90 uM. Type of series: cell-based. The note with it: chlorocebus sabaeus, read-out: Cellular growth.
Series [8] is described as follows: The compound was evaluated for cytotoxicity against VERO cells using Dye test at a concentration 11.2 uM. In kind it is cell-based. The following applies: chlorocebus sabaeus, read-out: Cellular growth.

`CSc1nc2c([nH]1)C(=O)/C(=N/CCCl)C=C2O`: the results for the IC50 (in series [1]; in series [2]; with MCF7) were 15.3 µM, 30.6 µM and more than 90 µM, respectively.

Regarding `CN(C)C1=CC(=O)c2[nH]c(-c3ccccn3)nc2C1=O`, the IC50 in [1] was 17.4 µM; in [2], 22.4 µM; with MCF7, more than 90 µM.

`CO[C@@]12[C@H](COC(N)=O)C3=C(C(=O)C(C)=C(N)C3=O)N1C[C@@H]1N[C@@H]12` [MITOMYCIN]: the values for the IC50 (in [1]; in series [2]; with MCF7) were less than 0.7 µM, 2.66 µM and 42.9 µM, respectively.

Turning to `CSc1nc2c([nH]1)C(=O)C=C(N(C)C)C2=O`, the IC50 is 38 µM in [1], 18.3 µM in series [2] and more than 90 µM with MCF7.

Turning to `COC1=CC(=O)c2[nH]c(SC)nc2C1=O`, the IC50 in series [1] is 5.07 µM; in series [2] it was 20.8 µM; with MCF7, 36 µM.

Regarding `CSc1nc2c([nH]1)C(=O)C(=N)C=C2O`, the IC50 in series [1] is 10.8 µM; in [2] it was 60.4 µM; in the series with MCF7, more than 90 µM.

For `CSc1nc2c([nH]1)C(=O)C=CC2=O`, the IC50 in series [1] amounted to 2.87 µM; in [2], 1.32 µM; with MCF7, 62.6 µM. Also, the values for the Protein content in the series on Vero [3], in the series on Vero [4] and with Vero [6] were 86.4%, 68.9% and 102.9%, respectively. Also, the viability at 0.7 µM in [5] is 99.3%. Besides, the viability at 90 µM in series [7] stood at 73.6%. For the same molecule, the viability at 11.2 µM in [8] was 101%.

Take `CSc1nc2c([nH]1)C(=O)C=C(Br)C2=O`: the IC50 stood at 5.03 µM in series [1], 32.1 µM in series [2] and 62.8 µM with MCF7.

Turning to `NC1=CC(=O)c2[nH]c(-c3ccccn3)nc2C1=O`, the figures for the IC50 (in series [1]; in [2]; in the series with MCF7) were 29.3 µM, 39.7 µM and more than 90 µM, respectively.

Regarding `O=C1C(Br)=CC(=O)c2[nH]c(-c3ccccn3)nc21`, the IC50 in series [1] was 5.57 µM; in series [2] it was 7.52 µM; in the series with MCF7, more than 90 µM.

With `CSc1nc2c([nH]1)C(=O)C(Br)=C(Br)C2=O`, the IC50 in series [1] was 6.26 µM; in [2], 12 µM; in the series with MCF7, 40.3 µM.

For `COC1=CC(=O)c2[nH]c(-c3ccccn3)nc2C1=O`, the IC50 was 2.57 µM in series [1], 2.63 µM in series [2] and 26.4 µM in the series with MCF7. Moreover, the Protein content in the series on Vero [3] worked out at 81.3%; in the series on Vero [4], 16.2%; with Vero [6], 97.2%. Further, the viability at 0.7 µM in series [5] worked out at 114%. The viability at 90 µM in series [7] stood at 16.4%. Besides, the viability at 11.2 µM in series [8] was 71.2%.
